Laboratory results reported in ChEMBL document CHEMBL5104203.

biological target: Trehalose-binding lipoprotein LpqY (Mycobacterium tuberculosis) (UniProt P9WGU9); assay: Binding affinity to RED-NHS labelled Mycobacterium tuberculosis LpqY expressed in Escherichia coli BL21 (DE3) assessed as dissociation constant incubated for 10 mins by Microscale thermophoresis analysis; conditions: DDE = dose-dependent effect
Sequence (P9WGU9 whole entry): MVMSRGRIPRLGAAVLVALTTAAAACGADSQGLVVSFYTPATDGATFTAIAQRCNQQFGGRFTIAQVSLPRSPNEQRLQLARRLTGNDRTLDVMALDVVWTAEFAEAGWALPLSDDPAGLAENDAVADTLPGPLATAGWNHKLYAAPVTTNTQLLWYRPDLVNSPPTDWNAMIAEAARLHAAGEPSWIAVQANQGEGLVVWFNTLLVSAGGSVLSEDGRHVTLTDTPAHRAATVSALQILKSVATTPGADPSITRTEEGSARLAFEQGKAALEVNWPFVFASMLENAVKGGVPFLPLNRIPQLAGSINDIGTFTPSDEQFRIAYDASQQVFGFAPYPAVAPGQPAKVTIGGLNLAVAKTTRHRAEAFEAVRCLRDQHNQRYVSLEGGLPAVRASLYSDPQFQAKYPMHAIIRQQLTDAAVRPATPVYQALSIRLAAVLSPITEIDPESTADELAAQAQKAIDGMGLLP

Question: Nc1cccnc1Nc1ccc(Cl)cc1 was tested. Which Activity did it give?
Answer: Dde

Question: How did the Activity turn out when CNC(=O)c1nn(C)c2c1C(C)(C)Cc1cnc(Nc3ccc(N4CCN(C)CC4)cc3)nc1-2 was run?
Answer: Dde

Question: Which Activity does the source give for COc1cc(NC(C)CCCN)c2ncccc2c1 (stereo not drawn) here?
Answer: Dde
